From PubChem BioAssay AID1963959 (Molecular Pharmacology Branch, DTP, NCI, 2024)

Test system: T-47D spheroids with HUVEC/MSC, viability
Assay: Anticancer human tumor T-47D cell line growth inhibition [PI3K];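 also: spheroids exposed to agents for seven days before reading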;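 as to viability, T/C: percent of DMSO vehicle control luminescence so 100% = untreated growth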
Settings: for IC50: curve of first compound; for viability, T/C: stronger effect = lower value
Description: Combinatorial screen of targeted agents with the PI3K inhibitors inavolisib, alpelisib, duvelisib, and copanlisib in multi-cell type tumor spheroids
A high-throughput screen of multi-cell type tumor spheroids was designed to identify active combinations of targeted small molecules and PI3K pathway inhibitors. Complex spheroids include a stromal component modeled by human endothelial cells (HUVEC) and fibroblasts modeled by human mesenchymal stem cells (MSCs). The concentration ranges selected for each drug and investigational agent were based upon clinically achievable concentrations if the clinical Cmax of the agent was known.
Compounds. The drugs and investigational agents: inavolisib (NSC800729), alpelisib (NSC765974), duvelisib (NSC772469), copanlisib (NSC816437), ipatasertib (NSC767898), afuresertib (NSC778305), talazoparib (NSC767125), sapanisertib (NSC764658), selumetinib (NSC741078), tovorafenib (DAY101, NSC766906), vemurafenib (NSC761431), ravoxertinib (NSC781343), sotorasib (NSC818433), MRTX1133 (NSC 836407), abemaciclib (NSC 768073), palbociclib (NSC758247), venetoclax (NSC 766270), SY5609 (NSC837396), enzalutamide (NSC755605), and darolutamide (NSC825331), were obtained from the National Cancer Institute (NCI) Developmental Therapeutics Program Chemical Repository. The FDA-approved anticancer drug set is available from the NCI Developmental Therapeutics Program. […] The stock solutions were prepared in dimethyl sulfoxide (DMSO, Sigma-Aldrich, St. Louis, MO, cat. D2650) at 800-fold the tested concentration and stored at -70 degrees C prior to their use. All drugs and investigational agents were tested over a range starting from a high concentration at or near the clinical Cmax and decreasing in half-log increments. If the clinical Cmax for an agent had not been determined, the highest concentration tested was 10 microM.
Cell Culture. All cells were maintained in an incubator at 37 degrees C and 5% CO2 with 95% humidity. The PDC lines were cultured according to standard operating procedures established by the NCI PDMR (https://pdmr.cancer.gov/sops/default.htm). All PDCs were thawed and cultured in Matrigel-coated flasks prepared with a working solution of 1X Ham's F-12 nutrient mix, without supplementation (Invitrogen, Waltham, MA, cat. 11765054), 100 U/mL penicillin-streptomycin (Invitrogen, cat. 15140122), and 2.5% Matrigel (Corning Inc., Corning, NY, cat. 354248) for the first three passages. The 354836-022-R-J1-PDC, 475296-252-R-J1-PDC, and 997726-040-R-J2-PDC lines were cultured in 6A media, which includes advanced DMEM/F-12 (Thermo Fisher Scientific, cat. 12634028), 10 mM HEPES (Thermo Fisher Scientific, cat. 15630080), 1X GlutaMAX supplement (Thermo Fisher Scientific, cat. 35050061), 0.1 mg/mL primocin (InvivoGen, San Diego, CA, cat. ant-pm-2), 10% defined fetal bovine serum, heat inactivated (HyClone Laboratories Inc., Logan, UT, cat. SH30070.03HI), 50% L-WRN conditioned media (ATCC, cat. CRL-3276), 1.25 mM N-Acetyl-L-cysteine (Sigma-Aldrich, cat. A9165), 10 mM nicotinamide (Sigma-Aldrich, cat. N0636), 1X B-27 supplement (Thermo Fisher Scientific, cat. 17504044), 1X N-2 supplement (Thermo Fisher Scientific, cat. 17502048), and 10 microM Y-27632 dihydrochloride (Tocris Bioscience, Bristol, United Kingdom, cat. 1254). The 624824-186-R-J2-PDC line was cultured in 6C/Colon 1B media, which includes all 6A media components plus 50 ng/mL human EGF recombinant protein (Thermo Fisher Scientific, cat. PHG0311). […]

With `Cn1cnc2c(F)c(Nc3ccc(Br)cc3Cl)c(C(=O)NOCCO)cc21` + CC(Nc1ccc2c(c1)OCCn1cc(N3C(=O)OCC3C(F)F)nc1-2)C(N)=O the IC50 (second compound 0.00316 µM) was > 3 µM, the IC50 (second compound 0.01 µM) was > 3 µM and the IC50 (second compound 0.0316 µM) was > 3 µM. For the same molecule, the IC50 (second compound 0.1 µM) was > 3 µM, the IC50 (second compound 0.316 µM) was > 3 µM and the IC50 (second compound 1 µM) was 0.294 µM. It also gave a viability, T/C (second compound 0.00316 µM, first compound 0.00949 µM) of 105%, a viability, T/C (second compound 0.00316 µM, first compound 0.03 µM) of 84.7% and a viability, T/C (second compound 0.00316 µM, first compound 0.0949 µM) of 99.8%. For the same molecule, the viability, T/C (second compound 0.00316 µM, first compound 0.3 µM) was 91.8%, the viability, T/C (second compound 0.00316 µM, first compound 0.949 µM) was 86.1% and the viability, T/C (second compound 0.00316 µM, first compound 3 µM) was 79.2%. The viability, T/C (second compound 0.01 µM, first compound 0.00949 µM) was 97.5%, the viability, T/C (second compound 0.01 µM, first compound 0.03 µM) was 80.4% and the viability, T/C (second compound 0.01 µM, first compound 0.0949 µM) was 96.1%. It also gave a viability, T/C (second compound 0.01 µM, first compound 0.3 µM) of 98.8%, a viability, T/C (second compound 0.01 µM, first compound 0.949 µM) of 82.3% and a viability, T/C (second compound 0.01 µM, first compound 3 µM) of 88.5%. For the same molecule, the viability, T/C (second compound 0.0316 µM, first compound 0.00949 µM) was 95.5%, the viability, T/C (second compound 0.0316 µM, first compound 0.03 µM) was 80.5% and the viability, T/C (second compound 0.0316 µM, first compound 0.0949 µM) was 101%. The viability, T/C (second compound 0.0316 µM, first compound 0.3 µM) was 96.6%, the viability, T/C (second compound 0.0316 µM, first compound 0.949 µM) was 97.8% and the viability, T/C (second compound 0.0316 µM, first compound 3 µM) was 86.4%. The viability, T/C (second compound 0.1 µM, first compound 0.00949 µM) was 85.6%, the viability, T/C (second compound 0.1 µM, first compound 0.03 µM) was 86.1% and the viability, T/C (second compound 0.1 µM, first compound 0.0949 µM) was 83.5%. It also gave a viability, T/C (second compound 0.1 µM, first compound 0.3 µM) of 90.2%, a viability, T/C (second compound 0.1 µM, first compound 0.949 µM) of 86.5% and a viability, T/C (second compound 0.1 µM, first compound 3 µM) of 83.8%. It also gave a viability, T/C (second compound 0.316 µM, first compound 0.00949 µM) of 71.3%, a viability, T/C (second compound 0.316 µM, first compound 0.03 µM) of 75.3% and a viability, T/C (second compound 0.316 µM, first compound 0.0949 µM) of 70.3%. The viability, T/C (second compound 0.316 µM, first compound 0.3 µM) was 66.5%, the viability, T/C (second compound 0.316 µM, first compound 0.949 µM) was 71.8% and the viability, T/C (second compound 0.316 µM, first compound 3 µM) was 61.1%. The viability, T/C (second compound 1 µM, first compound 0.00949 µM) was 54%, the viability, T/C (second compound 1 µM, first compound 0.03 µM) was 56.8% and the viability, T/C (second compound 1 µM, first compound 0.0949 µM) was 59.2%. It also gave a viability, T/C (second compound 1 µM, first compound 0.3 µM) of 49.7%, a viability, T/C (second compound 1 µM, first compound 0.949 µM) of 47.8% and a viability, T/C (second compound 1 µM, first compound 3 µM) of 52.2%.
